≈ marks a conversion by molar mass, not a printed value. Values belong to the molecule of their own block, whether it stands above or below them.
What was measured:
[1] = tested on: U87 MG (malignant glioma cell); experiment: Solid tumor cell growth inhibition, MTT, 72 h (Example 7); assay type: cell-based; conditions: Homo sapiens, U-87 MG
Summary of the method: (§1)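 First, 4000 cells per well are plated in DMEM high glucose with 10% fetal bovine serum and incubated 24 h (37 °C, 5% CO2). Next, derivatives are added at different concentrations. After 72 h, MTT gives viable cell concentration, expressed as % of untreated control.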

[2] = tested on: CNE (nasopharyngeal carcinoma cell); experiment: as above; assay type: cell-based; conditions: Homo sapiens
Summary of the method: as §1

[3] = tested on: SK-OV-3 (ovarian cancer cell); experiment: as above; assay type: cell-based; conditions: Homo sapiens
Summary of the method: as §1

[4] = tested on: MGC 803 (human gastric cancer cell); experiment: as above; assay type: cell-based; conditions: Homo sapiens
Summary of the method: as §1

[5] = tested on: Becap37 (human breast cancer cell); experiment: as above; assay type: cell-based; conditions: for IC50 / IC90: Homo sapiens, 72 h, MTT, Becap-37
Summary of the method: as §1

[6] = tested on: Huh7 (human liver cancer cell); experiment: as above; assay type: cell-based; conditions: Homo sapiens; 72 h, MTT, Huh-7
Summary of the method: as §1

[7] = tested on: A549 (human lung cancer); experiment: as above; assay type: cell-based; conditions: Homo sapiens; 72 h, MTT, A549
Summary of the method: as §1

[8] = tested on: RKO (human colon adenocarcinoma cell); experiment: as above; assay type: cell-based; conditions: for IC50 / IC90: Homo sapiens, 72 h, MTT, RKO
Summary of the method: as §1

[9] = tested on: Hela (human cervical cancer cell); experiment: as above; assay type: cell-based; conditions: for IC50 / IC90: Homo sapiens, 72 h, MTT, Hela
Summary of the method: as §1

[10] = tested on: PC-3 (prostate cancer); experiment: as above; assay type: cell-based, human; conditions: Homo sapiens; 72 h, MTT, PC-3
Summary of the method: as §1

[11] = tested on: Hep-2 (laryngeal carcinoma); experiment: as above; assay type: cell-based, human; conditions: for IC50 / IC90: Homo sapiens, 72 h, MTT, Hep 2
Summary of the method: as §1

[12] = tested on: CaES-17 (esophageal cancer cell); experiment: as above; assay type: cell-based, human; conditions: for IC50 / IC90: Homo sapiens, CaEs17, 72 h, MTT, CAES-17
Summary of the method: as §1

[13] = tested on: MG63 (osteosarcoma); experiment: as above; assay type: cell-based, human; conditions: for IC50 / IC90: Homo sapiens, 72 h, MTT, MG-63
Summary of the method: as §1

[14] = tested on: PANC-1 (pancreatic cancer); experiment: as above; assay type: cell-based, human; conditions: Homo sapiens; 72 h, MTT, PANC-1
Summary of the method: as §1

[15] = tested on: K562/adr (drug-resistant, chronic myeloid leukemia, CML); experiment: Leukemia cell growth inhibition, MTT, 72 h (Example 5); assay type: cell-based, human; conditions: Homo sapiens, K562/Adr; 72 h, MTT
Summary of the method: (§2)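 Seed 6000 leukemia cells per well in 1640 medium containing 10% FBS. Add test compounds at different concentrations, mix, incubate 72 hours at 37° C in 5% CO2. Determine viable cells by MTT.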

[16] = tested on: NB4 (acute promyelocytic leukemia, AML); experiment: as above; assay type: cell-based, human; conditions: for IC50 / IC90: Homo sapiens, 72 h, MTT
Summary of the method: as §2

[17] = tested on: Jurkat (acute lymphoblastic leukemia, ALL); experiment: as above; assay type: cell-based, human; conditions: for IC50 / IC90: Homo sapiens, Jurkat, 72 h, MTT
Summary of the method: as §2

[18] = tested on: Kasumi-1 (acute myeloid leukemia M2 type, AML-M2); experiment: as above; assay type: cell-based, human; conditions: Homo sapiens, Kasumi 1
Summary of the method: as §2

[19] = tested on: H9 (acute lymphoblastic leukemia, ALL); experiment: as above; assay type: cell-based, human; conditions: for IC50 / IC90: Homo sapiens, 72 h, MTT
Summary of the method: as §2

[20] = tested on: RPMI8226 (multiple myeloma); experiment: Multiple myeloma cell growth inhibition, MTT, 72 h (Example 6); assay type: cell-based, human; conditions: Homo sapiens, RPMI-8226; 72 h, MTT, RPMI8226
Summary of the method: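 Viability was read by MTT after 72 h of compound exposure at 37 °C, 5% CO2. Each well held 6000 RPMI8226 cells in 1640 medium containing 10% fetal bovine serum, with derivatives added at various concentrations.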

IC50 [1]: 0.37 µg/mL (≈ 0.514 µM)
IC90 [1]: 1.16 µg/mL (≈ 1.61 µM)
IC50 [2]: 1.17 µg/mL (≈ 1.63 µM)
IC90 [2]: 3.64 µg/mL (≈ 5.06 µM)
IC50 [3]: 3.5 µg/mL (≈ 4.86 µM)
IC90 [3]: > 16 µg/mL
IC50 [4]: 0.92 µg/mL (≈ 1.28 µM)
IC90 [4]: 12 µg/mL (≈ 16.7 µM)
IC50 [5]: 0.76 µg/mL (≈ 1.06 µM)
IC90 [5]: 2.69 µg/mL (≈ 3.74 µM)
IC50 [6]: 1.28 µg/mL (≈ 1.78 µM)
IC90 [6]: 2.45 µg/mL (≈ 3.4 µM)
IC50 [7]: 3.4 µg/mL (≈ 4.72 µM)
IC90 [7]: 14.9 µg/mL (≈ 20.7 µM)
IC50 [8]: 0.25 µg/mL (≈ 0.347 µM)
IC90 [8]: 1.18 µg/mL (≈ 1.64 µM)
IC50 [9]: 2 µg/mL (≈ 2.78 µM)
IC90 [9]: 6.92 µg/mL (≈ 9.61 µM)
IC50 [10]: 1.83 µg/mL (≈ 2.54 µM)
IC90 [10]: 3.65 µg/mL (≈ 5.07 µM)
IC50 [11]: 3.22 µg/mL (≈ 4.47 µM)
IC90 [11]: 8.45 µg/mL (≈ 11.7 µM)
IC50 [12]: 1.42 µg/mL (≈ 1.97 µM)
IC90 [12]: 11 µg/mL (≈ 15.3 µM)
IC50 [13]: 0.77 µg/mL (≈ 1.07 µM)
IC90 [13]: 1.27 µg/mL (≈ 1.76 µM)
IC50 [14]: 2.27 µg/mL (≈ 3.15 µM)
IC90 [14]: 8.22 µg/mL (≈ 11.4 µM)
IC50 [15]: 0.44 µg/mL (≈ 0.611 µM)
IC90 [15]: 8.5 µg/mL (≈ 11.8 µM)
IC50 [16]: 0.4 µg/mL (≈ 0.556 µM)
IC90 [16]: 1.4 µg/mL (≈ 1.94 µM)
IC50 [17]: 0.48 µg/mL (≈ 0.667 µM)
IC90 [17]: 4.52 µg/mL (≈ 6.28 µM)
IC50 [18]: 0.46 µg/mL (≈ 0.639 µM)
IC90 [18]: 2.55 µg/mL (≈ 3.54 µM)
IC50 [19]: 0.63 µg/mL (≈ 0.875 µM)
IC90 [19]: 1.96 µg/mL (≈ 2.72 µM)
IC50 [20]: 0.04 µg/mL (≈ 0.0556 µM)
IC90 [20]: 3.08 µg/mL (≈ 4.28 µM)
SMILES: COc1ccc2cc1Oc1ccc(cc1)C[C@H]1c3cc(c(OC)cc3CCN1C)Oc1c(OC)c(OC)c(CN3CCCCC3)c3c1[C@H](C2)N(C)CC3 [BS-TE-355]
anti-Jurkat activity increase over tetrandrine ([17]; compared with tetrandrine): ~4 fold

IC50 [1]: 1.24 µg/mL (≈ 1.66 µM)
IC90 [1]: 3.74 µg/mL (≈ 5.01 µM)
IC50 [2]: 3.86 µg/mL (≈ 5.17 µM)
IC90 [2]: 13.3 µg/mL (≈ 17.8 µM)
IC50 [3]: 7 µg/mL (≈ 9.37 µM)
IC90 [3]: > 16 µg/mL
IC50 [4]: 2.51 µg/mL (≈ 3.36 µM)
IC90 [4]: 4 µg/mL (≈ 5.36 µM)
IC50 [5]: 5.8 µg/mL (≈ 7.77 µM)
IC90 [5]: 13 µg/mL (≈ 17.4 µM)
IC50 [6]: 2.66 µg/mL (≈ 3.56 µM)
IC90 [6]: 4.71 µg/mL (≈ 6.31 µM)
IC50 [7]: 8.6 µg/mL (≈ 11.5 µM)
IC90 [7]: > 16 µg/mL
IC50 [8]: 2.21 µg/mL (≈ 2.96 µM)
IC90 [8]: 4.67 µg/mL (≈ 6.25 µM)
IC50 [9]: 3.82 µg/mL (≈ 5.11 µM)
IC90 [9]: 10.8 µg/mL (≈ 14.4 µM)
IC50 [10]: 4.11 µg/mL (≈ 5.5 µM)
IC90 [10]: 7.84 µg/mL (≈ 10.5 µM)
IC50 [11]: 5.42 µg/mL (≈ 7.26 µM)
IC90 [11]: 16 µg/mL (≈ 21.4 µM)
IC50 [12]: 5.36 µg/mL (≈ 7.18 µM)
IC90 [12]: 29.9 µg/mL (≈ 40 µM)
IC50 [13]: 4.5 µg/mL (≈ 6.03 µM)
IC90 [13]: 8.8 µg/mL (≈ 11.8 µM)
IC50 [14]: 15.8 µg/mL (≈ 21.1 µM)
IC90 [14]: > 16 µg/mL
IC50 [15]: 3.06 µg/mL (≈ 4.1 µM)
IC90 [15]: 16 µg/mL (≈ 21.4 µM)
IC50 [16]: 1.4 µg/mL (≈ 1.87 µM)
IC90 [16]: 2 µg/mL (≈ 2.68 µM)
IC50 [17]: 2.52 µg/mL (≈ 3.37 µM)
IC90 [17]: 8.03 µg/mL (≈ 10.8 µM)
IC50 [18]: 3.15 µg/mL (≈ 4.22 µM)
IC90 [18]: 8.98 µg/mL (≈ 12 µM)
IC50 [19]: 2.53 µg/mL (≈ 3.39 µM)
IC90 [19]: 7.29 µg/mL (≈ 9.76 µM)
IC50 [20]: 0.54 µg/mL (≈ 0.723 µM)
IC90 [20]: 3.14 µg/mL (≈ 4.2 µM)
SMILES: COc1ccc2cc1Oc1ccc(cc1)C[C@H]1c3cc(c(OC)cc3CCN1C)Oc1c(OC)c(OC)c(COC(=O)c3ccco3)c3c1[C@H](C2)N(C)CC3 [BS-TE-216]

IC50 [1]: 0.55 µg/mL (≈ 0.712 µM)
IC90 [1]: 1.78 µg/mL (≈ 2.3 µM)
IC50 [2]: 1.03 µg/mL (≈ 1.33 µM)
IC90 [2]: 2.49 µg/mL (≈ 3.22 µM)
IC50 [3]: 1.37 µg/mL (≈ 1.77 µM)
IC90 [3]: 3.89 µg/mL (≈ 5.03 µM)
IC50 [4]: 1.5 µg/mL (≈ 1.94 µM)
IC90 [4]: 3.62 µg/mL (≈ 4.68 µM)
IC50 [5]: 0.52 µg/mL (≈ 0.673 µM)
IC90 [5]: 2.15 µg/mL (≈ 2.78 µM)
IC50 [6]: 1.09 µg/mL (≈ 1.41 µM)
IC90 [6]: 4.97 µg/mL (≈ 6.43 µM)
IC50 [7]: 1.35 µg/mL (≈ 1.75 µM)
IC90 [7]: 4.79 µg/mL (≈ 6.2 µM)
IC50 [8]: 0.17 µg/mL (≈ 0.22 µM)
IC90 [8]: 0.6 µg/mL (≈ 0.776 µM)
IC50 [9]: 0.45 µg/mL (≈ 0.582 µM)
IC90 [9]: 2.29 µg/mL (≈ 2.96 µM)
IC50 [10]: 2.05 µg/mL (≈ 2.65 µM)
IC90 [10]: 4.71 µg/mL (≈ 6.09 µM)
IC50 [11]: 0.58 µg/mL (≈ 0.75 µM)
IC90 [11]: 3.58 µg/mL (≈ 4.63 µM)
IC50 [12]: 0.6 µg/mL (≈ 0.776 µM)
IC90 [12]: 4.9 µg/mL (≈ 6.34 µM)
IC50 [13]: 0.07 µg/mL (≈ 0.0906 µM)
IC90 [13]: 1.11 µg/mL (≈ 1.44 µM)
IC50 [14]: 1.34 µg/mL (≈ 1.73 µM)
IC90 [14]: 4.04 µg/mL (≈ 5.23 µM)
IC50 [15]: 0.83 µg/mL (≈ 1.07 µM)
IC90 [15]: 2.55 µg/mL (≈ 3.3 µM)
IC50 [16]: 0.2 µg/mL (≈ 0.259 µM)
IC90 [16]: 1.41 µg/mL (≈ 1.82 µM)
IC50 [17]: 2.34 µg/mL (≈ 3.03 µM)
IC90 [17]: 5.6 µg/mL (≈ 7.25 µM)
IC50 [18]: 1.29 µg/mL (≈ 1.67 µM)
IC90 [18]: 4.77 µg/mL (≈ 6.17 µM)
IC50 [19]: 0.25 µg/mL (≈ 0.323 µM)
IC90 [19]: 1.25 µg/mL (≈ 1.62 µM)
IC50 [20]: 0.25 µg/mL (≈ 0.323 µM)
IC90 [20]: 1.17 µg/mL (≈ 1.51 µM)
SMILES: COc1ccc2cc1Oc1ccc(cc1)C[C@H]1c3cc(c(OC)cc3CCN1C)Oc1c(OC)c(OC)c(COCCOc3ccccc3)c3c1[C@H](C2)N(C)CC3 [BS-TE-402]
anti-Becap37 activity increase over tetrandrine ([5]; compared with tetrandrine): 13 fold
anti-RKO activity increase over tetrandrine ([8]; compared with tetrandrine): 16 fold
anti-Hela activity increase over tetrandrine ([9]; compared with tetrandrine): 9 fold
anti-Hep-2 activity increase over tetrandrine ([11]; compared with tetrandrine): 7 fold
anti-CaES-17 activity increase over tetrandrine ([12]; compared with tetrandrine): 14 fold
anti-MG63 activity increase over tetrandrine ([13]; compared with tetrandrine): 27 fold
anti-NB4 activity increase over tetrandrine ([16]; compared with tetrandrine): ~8 fold
anti-H9 activity increase over tetrandrine ([19]; compared with tetrandrine): ~12 fold

— patent US9133207B2, “Tetrandrine derivatives with substituted 5-carbon, preparation method and use thereof” (Hangzhou Bensheng Pharmaceutical Co., Ltd., priority 2011, dated 2015)
